This is an account of results in ChEMBL document CHEMBL3734710 (Eur J Med Chem, 2015).

Structures are written as SMILES.

Series [1] in a line: in vivo. Particulars: rat, po, 10 mg/kg.
Series [2] is described as follows: in vivo. Particulars: rat, iv, 5 mg/kg.
A short description of series [3]: in vivo. Conditions: rat, po, 10 mg/kg. This is another data set of the same source.
Series [4] can be described thus: in vivo. Conditions: rat, iv, 5 mg/kg. This is another data set of the same source.
A short description of series [5]: in vivo. Conditions: rat, po, 10 mg/kg. The source holds these as a separate data set.
The nature of series [6]: in vivo. Conditions: rat, iv, 5 mg/kg. This is another data set of the same source.
Series [7] can be described thus: in vivo. Particulars: rat, po, 10 mg/kg. This is another data set of the same source.
The nature of series [8]: in vivo. Particulars: rat, iv.
Series [9] in a line: in vivo. Conditions: rat, iv. This is another data set of the same source.
Series [10] in a line: in vivo. Conditions: rat, iv. The source holds these as a separate data set.

As for `CC1(C)c2cc(C3CCN(CC4CCOCC4)CC3)ccc2C(=O)c2c1[nH]c1cc(C#N)ccc21`, the peak level in “in vivo [1]” (Cmax) was 351 ng/mL. The clearance in the series “in vivo [2]” is 14.2 mL/min/kg. Moreover, the bioavailability in the series “in vivo [3]” amounted to 67.1%. Further, the Vd in the series “in vivo [4]” was 17.4 L/kg. The same compound returned an AUC(0-inf) in the series “in vivo [5]” of 7290 ng·h/mL. In addition, the half-life in “in vivo [6]” was 15.8 h. Besides, in “in vivo [7]”, the Tmax is 4.5 h.

The compound `CCc1cc2c(cc1-c1cnn(CC(=O)N(C)C)c1)C(C)(C)c1[nH]c3cc(C#N)ccc3c1C2=O` displayed a maximum concentration (Cmax) in the series “in vivo [1]” of 218 ng/mL. The half-life in “in vivo [8]” is 3.77 h. The compound further had a volume of distribution (Vd) in the series “in vivo [9]” of 1.17 L/kg. In the series “in vivo [3]”, this compound displayed a bioavailability of 7.1%. In addition, the clearance in “in vivo [10]” is 10.8 mL/min/kg. In “in vivo [5]”, this compound showed an AUC(0-inf) of 1350 ng·h/mL. In the series “in vivo [7]”, the Tmax amounted to 3.3 h.

`CC1(C)c2cc(C3CCN(CC4(O)CCOCC4)CC3)ccc2C(=O)c2c1[nH]c1cc(C#N)ccc21` showed a peak concentration (Cmax) in “in vivo [1]” of 192 ng/mL. For the same compound, in “in vivo [2]”, the clearance is 38 mL/min/kg. The compound also came in with a bioavailability in “in vivo [3]” of 42.4%. The compound also showed a Vd in the series “in vivo [4]” of 12.9 L/kg. The compound further registered an AUC(0-inf) in “in vivo [5]” of 1940 ng·h/mL. In “in vivo [6]”, this compound gave a half-life of 5.41 h. Moreover, in the series “in vivo [7]”, the time to peak (Tmax) stood at 3.3 h.
